Measured values taken from paper PMC7922224, “Searching for Small Molecules as Antibacterials: Non-Cytotoxic Diarylureas Analogues of Triclocarban” (Antibiotics, 2021).
In brackets after ≈: the same amount, converted by molar mass.

Assays:
[1] = tested on: P. aeruginosa ATCC 27853; assay: MIC by broth microdilution (CLSI); assay type: cell-based; conditions: Gram-negative, 37 °C, 24 h, Mueller Hinton Broth; for MIC: Pseudomonas aeruginosa, ATCC27853
Procedure: (§1) The in vitro Minimum Inhibitory Concentrations (MICs, μg/mL) were determined by the broth microdilution method according to the Clinical Laboratory Standards Institute (CLSI) guidelines. MIC values were recorded as the lowest concentration of compounds at which there was no optically detectable microorganism growth and evaluated by comparing the growth in each well visually with that of the growth in the control well for bacteria. All compounds were dissolved in dimethyl sulfoxide (DMSO) and were tested in a final concentration range of from 512 to 2 µg/mL. MICs for the reference antibiotic norfloxacin against quality control strains were used to confirm the validity of the screen. According to the CLSI guidelines, diphenylureas were tested in vitro against a panel of Gram-positive and Gram-negative bacteria belonging to the ATCC collection using the standard microdilution test for the determination of MICs. MICs of the synthesised compounds along with the parent compound TCC and with the standard antibiotic norfloxacin are listed in Table 1. The compounds were also analyzed in terms of molecular mass, logP (Table 1), number of hydrogen-bond donors and number of hydrogen-bond acceptors, and most of them obeyed Lipinski’s rule. […] Based on our results, it seems that the 3,4-dichloro-disubstitution pattern, which is present in TCC, is not crucial for activity. […] Moreover, the activity against Enterococcus faecalis was interesting. E. faecalis is a ubiquitous member of the healthy human gut microbiota and also a common opportunistic pathogen and leading cause of nosocomial infections. It has a high incidence for most infections, and the case numbers have been increasing in recent decades, likely due to its greater ability to persist in healthcare facilities and its higher abundance in the human gut microbiome. Kim et al. (2016) compared the bactericidal effects of plain and antibacterial soap containing 0.3% TCC. The authors found no significative difference between the effects of plain and medicated soap at either temperature, with the only exception of E. faecalis ATCC 19433 at 40 °C.
(§2) MICs (μg/mL) were determined by the broth microdilution method, using 96-well plates, according to CLSI [26]. Stock solutions of the investigated compounds were obtained by setting the concentration at the maximum possible value. Then, the stock solutions were diluted 1:10 with Mueller Hinton Broth (Oxoid, Italy). Afterwards, twofold serial dilutions in the suitable test medium were carried out to obtain a set of concentrations from 512 to 2 µg/mL in the wells. To obtain the stock solution, DMSO (100%) was employed as diluent. The following bacteria strains, available as freeze-dried discs, belonging to the ATCC collection, were used: Gram-positive: S. aureus ATCC 29213, 6538, and 6538P, E. faecalis ATCC 29212; Gram-negative: K. pneuomoniae ATCC 13883, P. aeruginosa ATCC 27853. To conserve the purity of cultures and to enable their reproducibility, cryovials of all microbial strains in the medium were set up and stored at −80 °C. Pre-cultures of each bacterial strain were prepared in Mueller Hinton Broth (MHB) and incubated at 37 °C for 3–5 h. The turbidity of bacterial cell suspension was calibrated to 0.5 McFarland Standard by the spectrophotometric method (OD 625 nm 0.08–0.10), as indicated in the CLSI protocol M7-A9 and, further, the standardized suspension was diluted (1:100) with MHB to reach 1–2 × 10^6 CFU/mL. All wells were seeded with 100 µl of the mentioned final inoculum, and some wells contained only inoculated broth as control growth. […] The MICs were determined by using the assay repeated twice in triplicate. Throughout the study, norfloxacin was used as reference antibiotic. Appropriate controls involved norfloxacin for bacteria as international reference standard. […]

[2] = tested on: K. pneumoniae ATCC 13883; assay: MIC by broth microdilution (CLSI); assay type: cell-based; conditions: Gram-negative, 37 °C, 24 h, Mueller Hinton Broth; for MIC: Klebsiella pneumoniae, ATCC13883, read-out: MIC K.p. 13883
Procedure: as §1, §2

[3] = tested on: S. aureus ATCC 29213; assay: MIC by broth microdilution (CLSI); assay type: cell-based, Staphylococcus aureus; conditions: Gram-positive, 37 °C, 24 h, Mueller Hinton Broth; for MIC: Staphylococcus aureus, ATCC29213
Procedure: as §1, §2

[4] = tested on: S. aureus ATCC 6538; assay: MIC by broth microdilution (CLSI); assay type: cell-based, Staphylococcus aureus; conditions: Gram-positive, 37 °C, 24 h, Mueller Hinton Broth; for MIC: Staphylococcus aureus, ATCC6538
Procedure: as §1, §2

[5] = tested on: S. aureus ATCC 6538P; assay: MIC by broth microdilution (CLSI); assay type: cell-based, Staphylococcus aureus; conditions: Gram-positive, 37 °C, 24 h, Mueller Hinton Broth; for MIC: Staphylococcus aureus, ATCC6538P
Procedure: as §1, §2

[6] = tested on: E. faecalis ATCC 29212; assay: MIC by broth microdilution (CLSI); assay type: cell-based, Enterococcus faecalis; conditions: Gram-positive, 37 °C, 24 h, Mueller Hinton Broth; for MIC: Enterococcus faecalis, ATCC29212, read-out: MIC E.f. 29212
Procedure: as §1, §2

[7] = tested on: Staphylococcus aureus; assay: MIC by broth microdilution, S. aureus (strain not given); assay type: cell-based; conditions: strain not specified (best value among the ATCC strains), read-out: MIC against S. aureus
Procedure: as §1, §2

[8] = tested on: E. coli 25922; assay: MIC by broth microdilution (CLSI); assay type: cell-based; conditions: Escherichia coli, Gram-negative, 37 °C, 24 h, Mueller Hinton Broth

| Compound | MIC P. a. 27853 [1] [µg/mL] | MIC K.p. 13883 [2] [µg/mL] | MIC S.a. 29213 [3] [µg/mL] | MIC S.a. 6538 [4] [µg/mL] | MIC S.a. 6538P [5] [µg/mL] | MIC E.f. 29212 [6] [µg/mL] | MIC [7] [µg/mL] | MIC [8] [µg/mL] | MIC [1] [µg/mL] | MIC [2] [µg/mL] | MIC [3] [µg/mL] | MIC [4] [µg/mL] | MIC [5] [µg/mL] | MIC [6] [µg/mL] | melting point [°C] |
| --- | --- | --- | --- | --- | --- | --- | --- | --- | --- | --- | --- | --- | --- | --- | --- |
| 1-(3-Chloro-4-fluorophenyl)-3-(2-methylphenyl)urea [1gk] | 256 | 256 | 256 | 128 | 64 | 64 | – | – | – | – | – | – | – | – | – |
| COc1ccc(NC(=O)Nc2ccc(C)cc2)cc1 [1ad, 1-(4-Methoxyphenyl)-3-(p-tolyl)urea] | – | – | – | – | – | – | 32 (≈ 125 µM) | > 256 | > 256 | > 256 | 128 (≈ 499 µM) | 32 (≈ 125 µM) | 32 (≈ 125 µM) | 128 (≈ 499 µM) | – |
| Cc1ccc(NC(=O)Nc2ccc(Cl)c(Cl)c2)cc1 [1ae, 1-(3,4-Dichlorophenyl)-3-p-tolylurea] | – | – | – | – | – | – | – | > 256 | > 256 | > 256 | 128 (≈ 434 µM) | 64 (≈ 217 µM) | 64 (≈ 217 µM) | 128 (≈ 434 µM) | 225 to 226 |
| Cc1ccc(NC(=O)Nc2ccccc2)cc1 [1af, 1-(4-Methylphenyl)-3-phenylurea] | – | – | – | – | – | – | – | > 256 | > 256 | > 256 | 128 (≈ 566 µM) | 64 (≈ 283 µM) | 128 (≈ 566 µM) | 64 (≈ 283 µM) | – |
| Cc1ccc(NC(=O)Nc2ccccc2C)cc1 [1ag, 1-(2-Methylphenyl)-3-(4-methylphenyl)urea] | – | – | – | – | – | – | – | > 256 | > 256 | > 256 | 256 (≈ 1070 µM) | 128 (≈ 533 µM) | 256 (≈ 1070 µM) | 128 (≈ 533 µM) | – |
| COc1ccc(NC(=O)Nc2c(C)cccc2C)cc1 [1bd, 1-(4-Methoxyphenyl)-3-(2,6-dimethylphenyl)urea] | – | – | – | – | – | – | 16 (≈ 59.2 µM) | > 256 | > 256 | > 256 | > 256 | 32 (≈ 118 µM) | 16 (≈ 59.2 µM) | 128 (≈ 473 µM) | – |
| Cc1cccc(C)c1NC(=O)Nc1ccc(Cl)c(Cl)c1 [1be, 1-(2,6-Dimethylphenyl)-3-(3,4-dichlorophenyl)urea] | – | – | – | – | – | – | 32 (≈ 103 µM) | > 256 | > 256 | > 256 | 128 (≈ 414 µM) | 32 (≈ 103 µM) | 128 (≈ 414 µM) | 64 (≈ 207 µM) | 249 to 250 |
| Cc1cccc(C)c1NC(=O)Nc1ccccc1 [1bf, 1-(2,6-Dimethylphenyl)-3-phenylurea] | – | – | – | – | – | – | 16 (≈ 66.6 µM) | > 256 | > 256 | > 256 | > 256 | 16 (≈ 66.6 µM) | 16 (≈ 66.6 µM) | 64 (≈ 266 µM) | 240 to 241 |
| O=C(Nc1ccc(Cl)cc1)Nc1ccc(Cl)cc1 [1cc (DCC), 1-(4-Chlorophenyl)-3-(4-chlorophenyl)urea] | – | – | – | – | – | – | – | > 256 | > 256 | > 256 | 256 (≈ 911 µM) | 128 (≈ 455 µM) | 256 (≈ 911 µM) | 128 (≈ 455 µM) | – |
| O=C(Nc1ccccc1)Nc1ccc(Cl)cc1 [1cf (MCC), 1-(4-Chlorophenyl)-3-phenylurea] | – | – | – | – | – | – | – | > 256 | > 256 | > 256 | 128 (≈ 519 µM) | 64 (≈ 259 µM) | 128 (≈ 519 µM) | 64 (≈ 259 µM) | – |
| COc1ccc(NC(=O)Nc2ccc(Cl)c(Cl)c2)cc1 [1de, 1-(3,4-Dichlorophenyl)-3-(4-methoxyl)phenylurea] | – | – | – | – | – | – | – | > 256 | > 256 | > 256 | 128 (≈ 411 µM) | 64 (≈ 206 µM) | 64 (≈ 206 µM) | 64 (≈ 206 µM) | – |
| COc1ccc(NC(=O)Nc2ccccc2)cc1 [1df, 1-(4-Methoxyphenyl)-3-phenylurea] | – | – | – | – | – | – | – | > 256 | 256 (≈ 1060 µM) | > 256 | 256 (≈ 1060 µM) | 64 (≈ 264 µM) | 128 (≈ 528 µM) | 128 (≈ 528 µM) | – |
| O=C(Nc1ccccc1)Nc1ccc(Cl)c(Cl)c1 [1ef, 1-(3,4-Dichlorophenyl)-3-phenylurea] | – | – | – | – | – | – | 16 (≈ 56.9 µM) | > 256 | 256 (≈ 911 µM) | > 256 | 256 (≈ 911 µM) | 16 (≈ 56.9 µM) | 128 (≈ 455 µM) | 128 (≈ 455 µM) | – |
| Cc1ccccc1NC(=O)Nc1ccc(Cl)c(Cl)c1 [1eg, 1-(3,4-Dichlorophenyl)-3-(2-methylphenyl)urea] | – | – | – | – | – | – | – | > 256 | > 256 | > 256 | 256 (≈ 867 µM) | 64 (≈ 217 µM) | 128 (≈ 434 µM) | 64 (≈ 217 µM) | – |
| O=C(Nc1ccccc1)Nc1ccccc1 [1ff (NCC), 1,3-Diphenylurea] | – | – | – | – | – | – | – | > 256 | > 256 | > 256 | > 256 | 128 (≈ 603 µM) | 64 (≈ 302 µM) | > 256 | – |
| Cc1ccccc1NC(=O)Nc1ccccc1 [1fg, 1-(2-Methylphenyl)-3-phenylurea] | – | – | – | – | – | – | 16 (≈ 70.7 µM) | > 256 | > 256 | 256 (≈ 1130 µM) | 256 (≈ 1130 µM) | 32 (≈ 141 µM) | 16 (≈ 70.7 µM) | 64 (≈ 283 µM) | 241 to 242 |
| O=C(Nc1ccccc1)Nc1ccc(F)c(F)c1 [1fj, 1-(3,4-Difluorophenyl)-3-phenylurea] | – | – | – | – | – | – | – | – | 256 (≈ 1030 µM) | 256 (≈ 1030 µM) | 256 (≈ 1030 µM) | 128 (≈ 516 µM) | 64 (≈ 258 µM) | 128 (≈ 516 µM) | 213 to 214 |
| Cc1ccccc1NC(=O)Nc1ccccc1Cl [1gh, 1-(2-Chlorophenyl)-3-(2-methylphenyl)urea] | – | – | – | – | – | – | 32 (≈ 123 µM) | > 256 | > 256 | > 256 | 256 (≈ 982 µM) | 32 (≈ 123 µM) | 32 (≈ 123 µM) | 256 (≈ 982 µM) | 223 to 224 |
| Cc1ccccc1NC(=O)Nc1ccc(F)c(F)c1 [1gj, 1-(3,4-Difluorophenyl)-3-(2-methylphenyl)urea] | – | – | – | – | – | – | – | > 256 | > 256 | > 256 | > 256 | 64 (≈ 244 µM) | 128 (≈ 488 µM) | 64 (≈ 244 µM) | – |
| Cc1ccccc1NC(=O)Nc1ccccc1F [1gl, 1-(2-Metylphenyl)-3-(2-fluorophenyl)urea] | – | – | – | – | – | – | 32 (≈ 131 µM) | > 256 | > 256 | > 256 | 128 (≈ 524 µM) | 64 (≈ 262 µM) | 32 (≈ 131 µM) | 128 (≈ 524 µM) | 224 to 225 |
